Results as given in patent publication US11214803B2, “Modulators of YAP1 expression” (Ionis Pharmaceuticals, Inc., priority 2019, dated 2022).
Strand notation (5' to 3'): a small letter for the sugar, then the base; units joined by * are phosphorothioate-linked, units joined directly phosphodiester-linked; [ ] holds rarer units or linkages, { } end groups; capitals alone tell only the bases. k = constrained ethyl (cEt); [5mC] = 5-methylcytosine; d = 2'-deoxy (DNA)

Tests used:
Yap1 mRNA [1] = test: Antisense inhibition of human Yap1 in A-431 cells by cEt gapmers, single dose (Example 3, RTS36584); format: cell-based
Method in brief: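 A-431 cells were treated by free uptake with 2,000 nM modified oligonucleotide (3-10-3 cEt gapmers, full phosphorothioate, 5-methylcytosines) for about 48 hours. Yap1 mRNA was quantified by real-time RT-PCR, normalized to RiboGreen total RNA, and expressed as % of untreated control; asterisked values mark oligonucleotides targeting the amplicon region.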

Yap1 mRNA [2] = test: Dose-dependent inhibition of human Yap1 in A-431 cells (Example 8, 10,000 cells per well, RTS4814); format: cell-based; settings: free uptake, approximately 48 hours, RTS4814; for Yap1 mRNA, % UTC: A-431 cells, 10,000 cells per well; for IC50: A-431 cells, linear regression on log/linear plot
Method in brief: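 A-431 cells (10,000/well) dosed with modified oligonucleotides by free uptake; Yap1 mRNA measured ~48 h later with primer-probe set RTS4814, normalized to total RNA (RIBOGREEN). Values are % of untreated control; IC50 from linear regression on log/linear plot.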

[3] = Table 28, Yap1 mRNA as percent of untreated control, 3-10-3 cEt gapmers targeting SEQ ID NO.: 1, and 2
[4] = Table 29, Yap1 mRNA as percent of untreated control, 3-10-3 cEt gapmers targeting SEQ ID NO.: 1, and 2
[5] = Table 27, Yap1 mRNA by 3-10-3 cEt gapmers targeting SEQ ID NO.: 1, and 2, percent of untreated control

Substance	YAP1 (% UTC) (Yap1 mRNA [1]; [3])	Yap1 mRNA, % UTC (Yap1 mRNA [2]; 31.3 nM) [% UTC]	Yap1 mRNA, % UTC (Yap1 mRNA [2]; 125.0 nM) [% UTC]	Yap1 mRNA, % UTC (Yap1 mRNA [2]; 500.0 nM) [% UTC]	Yap1 mRNA, % UTC (Yap1 mRNA [2]; 2000.00 nM) [% UTC]	IC50 (Yap1 mRNA [2]) [nM]	YAP1 (% UTC) (Yap1 mRNA [1]; Table 26, Yap1 mRNA by 3-10-3 cEt gapmers targeting SEQ ID NO.: 1, and 2, percent of untreated control)	YAP1 (% UTC) (Yap1 mRNA [1]; [4])	YAP1 (% UTC) (Yap1 mRNA [1]; [5])
1076462 (kT*k[5mC]*kA*dG*dA*dA*dG*dG*dA*dT*dA*dT*dG*k[5mC]*kA*kG; antisense) [compound 1076462]	6	61	22	8	5	30			
1074222 (antisense kA*kG*kG*dA*dA*dT*dG*dA*dG*d[5mC]*dT*d[5mC]*dG*kA*kA*k[5mC]) [compound 1074222]	5	59	21	8	5	< 20			
1074508 (kG*kA*kG*dA*dG*dA*dG*d[5mC]*dA*dG*dA*dT*dA*kA*kT*k[5mC]; antisense) [compound 1074508]		62	30	14	8	50	7		
1075855 (antisense kG*kA*kT*dT*dT*dT*dT*dA*dG*dG*d[5mC]*dA*dG*kA*k[5mC]*kG) [compound 1075855]		65	30	12	8	100		7	
1074445 (kT*kG*kA*dT*dA*dG*d[5mC]*dA*d[5mC]*dT*dA*dG*dG*kA*kG*kG; antisense) [compound 1074445]		57	19	8	6	< 20			6
1074413 (kA*k[5mC]*kT*dG*dT*dG*dA*dA*dA*dG*dA*dG*dG*kT*k[5mC]*kA; antisense) [compound 1074413]		50	19	6	3	< 20			4
1076526 (kG*kT*kA*dG*dA*dA*dA*dG*dA*dT*dG*dG*d[5mC]*kT*k[5mC]*kA; antisense) [compound 1076526]	3	44	9	3	2	< 20			
1074639 (antisense kT*kA*kG*dA*dT*dT*dT*dT*dG*dT*dA*dA*dT*kT*kG*kG) [compound 1074639]		46	18	7	5	< 20		3	
1074477 (kG*kT*kT*d[5mC]*d[5mC]*dG*dA*d[5mC]*dA*dA*dA*dA*d[5mC]*k[5mC]*kA*kA; antisense) [compound 1074477]		77	48	20	12	100			10
1076366 (antisense kA*kT*kT*dT*dA*d[5mC]*dA*dT*dG*dA*dG*dA*dG*kG*kA*kG) [compound 1076366]	4	63	25	8	4	40			
1074446 (kA*kT*kG*dA*dT*dA*dG*d[5mC]*dA*d[5mC]*dT*dA*dG*kG*kA*kG; antisense) [compound 1074446]	3	39	11	5	3	< 20			
1076461 (kG*kA*kT*dT*dA*dA*dT*dA*dT*dA*dG*d[5mC]*d[5mC]*k[5mC]*k[5mC]*kT; antisense) [compound 1076461]		65	24	7	3	40			3
